Assay results reported in publication PMC7587962, “Evaluation of Cytotoxicity and α-Glucosidase Inhibitory Activity of Amide and Polyamino-Derivatives of Lupane Triterpenoids” (Molecules, 2020).
Where two headings read alike, the source gives them in different places.

Legend:
NCI-H460 = test: NCI-60 SRB screen: non-small cell lung cancer NCI-H460; type: cell-based; settings: Homo sapiens, 48 h, NCI-H460
NCI/ADR-RES = test: NCI-60 SRB screen: ovarian cancer NCI/ADR-RES; type: cell-based, human
Colon Cancer subpanel = test: NCI-60 screen, subpanel Colon Cancer
RXF 393 = test: NCI-60 SRB screen: renal cancer RXF 393; type: cell-based, human; settings: RXF 393
[1] = system: 60 human tumor cell lines; test: cells
MDA-MB-435 = test: NCI-60 SRB screen: melanoma MDA-MB-435; type: cell-based, human; settings: MDA-MB-435
Renal Cancer subpanel = test: NCI-60 screen, subpanel Renal Cancer
EKVX = test: NCI-60 SRB screen: non-small cell lung cancer EKVX; type: cell-based, human
CAKI-1 = test: NCI-60 SRB screen: renal cancer CAKI-1; type: cell-based, human; settings: CAKI-1
HL-60(TB) = test: NCI-60 SRB screen: leukemia HL-60(TB); type: cell-based; settings: Homo sapiens, 48 h, HL-60(TB)
HT29 = test: NCI-60 SRB screen: colon cancer HT29; type: cell-based; settings: Homo sapiens, HT29
Leukemia subpanel = test: NCI-60 screen, subpanel Leukemia
PC-3 = test: NCI-60 SRB screen: prostate cancer PC-3; type: cell-based, human; settings: PC-3
NSCL cancer subpanel = test: NCI-60 screen, subpanel NSCL cancer
NCI-H322M = test: NCI-60 SRB screen: non-small cell lung cancer NCI-H322M; type: cell-based, human
HOP-92 = test: NCI-60 SRB screen: non-small cell lung cancer HOP-92; type: cell-based, human; settings: HOP-92
OVCAR-5 = test: NCI-60 SRB screen: ovarian cancer OVCAR-5; type: cell-based, human; settings: OVCAR-5
ACHN = test: NCI-60 SRB screen: renal cancer ACHN; type: cell-based, human
BT-549 = test: NCI-60 SRB screen: breast cancer BT-549; type: cell-based, human; settings: BT-549
Melanoma subpanel = test: NCI-60 screen, subpanel Melanoma
MOLT-4 = test: NCI-60 SRB screen: leukemia MOLT-4; type: cell-based; settings: Homo sapiens, 48 h, MOLT-4
Breast cancer subpanel = test: NCI-60 screen, subpanel Breast cancer
MDA-MB-231/ATCC = test: NCI-60 SRB screen: breast cancer MDA-MB-231/ATCC; type: cell-based; settings: Homo sapiens, 48 h
OVCAR-3 = test: NCI-60 SRB screen: ovarian cancer OVCAR-3; type: cell-based, human; settings: OVCAR-3
KM12 = test: NCI-60 SRB screen: colon cancer KM12; type: cell-based, human; settings: KM12
NCI-H23 = test: NCI-60 SRB screen: non-small cell lung cancer NCI-H23; type: cell-based, human; settings: NCI-H23
SF-539 = test: NCI-60 SRB screen: CNS cancer SF-539; type: cell-based, human; settings: SF-539
T-47D = test: NCI-60 SRB screen: breast cancer T-47D; type: cell-based, human; settings: T-47D
UACC-257 = test: NCI-60 SRB screen: melanoma UACC-257; type: cell-based, human; settings: UACC-257
A498 = test: NCI-60 SRB screen: renal cancer A498; type: cell-based, human; settings: A498
SK-OV-3 = test: NCI-60 SRB screen: ovarian cancer SK-OV-3; type: cell-based, human; settings: SK-OV-3
Prostate cancer subpanel = test: NCI-60 screen, subpanel Prostate cancer
COLO 205 = test: NCI-60 SRB screen: colon cancer COLO 205; type: cell-based, human; settings: COLO 205
MALME-3M = test: NCI-60 SRB screen: melanoma MALME-3M; type: cell-based, human; settings: MALME-3M
K-562 = test: NCI-60 SRB screen: leukemia K-562; type: cell-based, human; settings: K-562
[2] = single dose 10 µM, read-out: Percentage Cell Growth
[3] = five concentrations, SRB, read-out: GI50
[4] = Homo sapiens, five concentrations, 48 h, SRB, read-out: GI50

C=C(C)[C@@H]1CC[C@]2(C(=O)NCCCN)CC[C@]3(C)[C@H](CC[C@@H]4[C@@]5(C)CCC(=O)C(C)(C)[C@@H]5CC[C@]43C)[C@@H]12 [Compound 10]
activity at 10 µM (NCI-H460; [2]): -43.2% | GI50 (NCI-H460; [3]): 14 µM | GI50 (NCI/ADR-RES; [4]): 24.8 µM | Percentage Cell Growth (NCI/ADR-RES; single dose 10 µM): −9.52% | MID b, average sensitivity of all cell line of particular subpanel (Colon Cancer subpanel): 17.82 µM | Selectivity, ratio MID a: MID b (Colon Cancer subpanel): 1.15 | GI50 (RXF 393; [4]): 17.1 µM | Percentage Cell Growth (RXF 393; single dose 10 µM): −42.28% | GI50 ([1]; read-out: GI50 ranges against all panels of NCI60): 6.95 to 38.9 µM | GI50 ([1]; read-out: MID a, average sensitivity of all cell line (GI50-MID)): 20.5 µM | GI50 (MDA-MB-435; [4]): 28.7 µM | Percentage Cell Growth (MDA-MB-435; single dose 10 µM): −32.41% | MID b, average sensitivity of all cell line of particular subpanel (Renal Cancer subpanel): 23.80 µM | Selectivity, ratio MID a: MID b (Renal Cancer subpanel): 0.86 | GI50 (EKVX; [4]): 23.3 µM | Percentage Cell Growth (EKVX; single dose 10 µM): −15.68% | Percentage Cell Growth (CAKI-1; single dose 10 µM): −54.52% | GI50 (CAKI-1; [4]): 21.9 µM | activity at 10 µM (HL-60(TB); [2]): 1.25% | GI50 (HL-60(TB); [3]): 16.5 µM | activity at 10 µM (HT29; HT-29, 48 h, single dose 10 µM, read-out: Percentage Cell Growth): 3.9% | GI50 (HT29; HT-29, five concentrations, 48 h, SRB, read-out: GI50): 6.95 µM | MID b, average sensitivity of all cell line of particular subpanel (Leukemia subpanel): 14.59 µM | Selectivity, ratio MID a: MID b (Leukemia subpanel): 1.40 | GI50 (PC-3; [4]): 12.6 µM | Percentage Cell Growth (PC-3; single dose 10 µM): −53.78% | MID b, average sensitivity of all cell line of particular subpanel (NSCL cancer subpanel): 18.71 µM | Selectivity, ratio MID a: MID b (NSCL cancer subpanel): 1.09 | GI50 (NCI-H322M; [4]): 17.6 µM | Percentage Cell Growth (NCI-H322M; single dose 10 µM): −68.83% | Percentage Cell Growth (HOP-92; single dose 10 µM): −55.49% | GI50 (HOP-92; [4]): 10.8 µM | GI50 (OVCAR-5; [4]): 14.8 µM | Percentage Cell Growth (OVCAR-5; single dose 10 µM): −47.68% | GI50 (ACHN; [4]): 21.7 µM | Percentage Cell Growth (ACHN; single dose 10 µM): −49.24% | Percentage Cell Growth (BT-549; single dose 10 µM): −2.14% | GI50 (BT-549; [4]): 23.8 µM | MID b, average sensitivity of all cell line of particular subpanel (Melanoma subpanel): 24.33 µM | Selectivity, ratio MID a: MID b (Melanoma subpanel): 0.84 | activity at 10 µM (MOLT-4; [2]): 2.76% | GI50 (MOLT-4; [3]): 12.9 µM | MID b, average sensitivity of all cell line of particular subpanel (Breast cancer subpanel): 20.30 µM | Selectivity, ratio MID a: MID b (Breast cancer subpanel): 1.01 | activity at 10 µM (MDA-MB-231/ATCC; MDA-MB-231/ATCC, single dose 10 µM, read-out: Percentage Cell Growth): -47.8% | GI50 (MDA-MB-231/ATCC; MDA-MB-231, MDA-MB-31/ATCC, five concentrations, SRB, read-out: GI50): 21.1 µM | GI50 (OVCAR-3; [4]): 15.7 µM | Percentage Cell Growth (OVCAR-3; single dose 10 µM): −45.89% | GI50 (KM12; [4]): 17.3 µM | Percentage Cell Growth (KM12; single dose 10 µM): −25.31% | GI50 (NCI-H23; [4]): 22.6 µM | Percentage Cell Growth (NCI-H23; single dose 10 µM): −8.47% | GI50 (SF-539; [4]): 17.9 µM | Percentage Cell Growth (SF-539; single dose 10 µM): −36.20% | GI50 (T-47D; Homo sapiens, T47D, five concentrations, 48 h, SRB, read-out: GI50): 13.1 µM | Percentage Cell Growth (T-47D; single dose 10 µM): −12.76% | GI50 (UACC-257; [4]): 20.6 µM | Percentage Cell Growth (UACC-257; single dose 10 µM): −46.67% | Percentage Cell Growth (A498; single dose 10 µM): −44.82% | GI50 (A498; [4]): 22.9 µM | GI50 (SK-OV-3; [4]): 17.7 µM | Percentage Cell Growth (SK-OV-3; single dose 10 µM): −27.22% | MID b, average sensitivity of all cell line of particular subpanel (Prostate cancer subpanel): 15.05 µM | Selectivity, ratio MID a: MID b (Prostate cancer subpanel): 1.36 | Percentage Cell Growth (COLO 205; single dose 10 µM): 7.82% | GI50 (COLO 205; [4]): 21 µM | GI50 (MALME-3M; [4]): 23.3 µM | Percentage Cell Growth (MALME-3M; single dose 10 µM): −18.76% | GI50 (K-562; Homo sapiens, K562, five concentrations, 48 h, SRB, read-out: GI50): 9.84 µM | Percentage Cell Growth (K-562; single dose 10 µM): 1.10%
